Measurements as given in ChEMBL document CHEMBL6134832, “Expanding the utilization of binding pockets proves to be effective for noncovalent small molecule inhibitors against SARS-CoV-2 Mpro” (Eur J Med Chem, 2025).

Legend:
[1] = Metabolic stability in mouse liver microsomes assessed as half life; type: ADME, Microsome
SARS-CoV-2 [2] = experiment: Antiviral activity against wild type SARS-CoV-2 infected in African green monkey Vero E6 cells assessed as inhibition of virus induced cytopathic effect measured after 72 hrs by cytometric analysis; type: functional, organism-based; details: Severe acute respiratory syndrome coronavirus 2, Vero C1008, 72 h
[3] = Apparent permeability across basolateral to apical side in human Caco-2 cells
[4] = Half life in mouse at 10 mg/kg, po; type: ADME, organism-based; details: in vivo
[5] = Half life in mouse at 1 mg/kg, iv; type: ADME, organism-based; details: in vivo
[6] = Cytotoxicity against African green monkey Vero E6 cells assessed as cell viability measured after 72 hrs by Celltiter-glo luminescent cell viability assay; type: toxicity, cell-based, Vero C1008; details: chlorocebus sabaeus
SARS-CoV-2 [7] = experiment: Antiviral activity against SARS-CoV-2 EG.5 infected in African green monkey Vero E6 cells assessed as inhibition of virus induced cytopathic effect measured after 72 hrs by cytometric analysis; type: functional, organism-based; details: Severe acute respiratory syndrome coronavirus 2, EG.5, Vero C1008, 72 h
CYP3A4/CYP3A5 = CYP3A4/CYP3A5 (Homo sapiens, UniProt P08684+P20815); experiment: Inhibition of CYP3A4/CYP3A5 (unknown origin)
SARS-CoV-2 [8] = experiment: Antiviral activity against SARS-CoV-2 Omicron BA.5 infected in African green monkey Vero E6 cells assessed as inhibition of virus induced cytopathic effect measured after 72 hrs by cytometric analysis; type: functional, organism-based; details: Severe acute respiratory syndrome coronavirus 2, Omicron BA.5, Vero C1008, 72 h
SARS-CoV-2 [9] = experiment: Antiviral activity against SARS-CoV-2 XBB.1 infected in African green monkey Vero E6 cells assessed as inhibition of virus induced cytopathic effect measured after 72 hrs by cytometric analysis; type: functional, organism-based; details: Severe acute respiratory syndrome coronavirus 2, XBB.1, Vero C1008, 72 h
[10] = Inhibition of full-length SARS-CoV-2 MPro expressed in Escherichia coli BL21 (DE3) using MCA-AVLQSGFR-Lys (Dnp)-Lys-NH2 as substrate pre-incubated for 30 mins followed by substrate addition and measured after 20 mins by FRET assay; parameters: species or system Severe acute respiratory syndrome coronavirus 2
[11] = Oral bioavailability in mouse; type: ADME, organism-based; details: in vivo
[12] = Apparent permeability across apical to basolateral side in human Caco-2 cells
SARS-CoV-2 [13] = experiment: Antiviral activity against SARS-CoV-2 delta IM2175251 infected in African green monkey Vero E6 cells assessed as inhibition of virus induced cytopathic effect measured after 72 hrs by cytometric analysis; type: functional, organism-based; details: Severe acute respiratory syndrome coronavirus 2, delta IM2175251, Vero C1008, 72 h
[14] = AUC in po dosed mouse; type: ADME, organism-based; details: in vivo
[15] = molecular target: Voltage-gated inwardly rectifying potassium channel KCNH2 (Homo sapiens, UniProt Q12809)
Voltage-gated inwardly rectifying potassium channel KCNH2, sequence (Q12809 whole entry): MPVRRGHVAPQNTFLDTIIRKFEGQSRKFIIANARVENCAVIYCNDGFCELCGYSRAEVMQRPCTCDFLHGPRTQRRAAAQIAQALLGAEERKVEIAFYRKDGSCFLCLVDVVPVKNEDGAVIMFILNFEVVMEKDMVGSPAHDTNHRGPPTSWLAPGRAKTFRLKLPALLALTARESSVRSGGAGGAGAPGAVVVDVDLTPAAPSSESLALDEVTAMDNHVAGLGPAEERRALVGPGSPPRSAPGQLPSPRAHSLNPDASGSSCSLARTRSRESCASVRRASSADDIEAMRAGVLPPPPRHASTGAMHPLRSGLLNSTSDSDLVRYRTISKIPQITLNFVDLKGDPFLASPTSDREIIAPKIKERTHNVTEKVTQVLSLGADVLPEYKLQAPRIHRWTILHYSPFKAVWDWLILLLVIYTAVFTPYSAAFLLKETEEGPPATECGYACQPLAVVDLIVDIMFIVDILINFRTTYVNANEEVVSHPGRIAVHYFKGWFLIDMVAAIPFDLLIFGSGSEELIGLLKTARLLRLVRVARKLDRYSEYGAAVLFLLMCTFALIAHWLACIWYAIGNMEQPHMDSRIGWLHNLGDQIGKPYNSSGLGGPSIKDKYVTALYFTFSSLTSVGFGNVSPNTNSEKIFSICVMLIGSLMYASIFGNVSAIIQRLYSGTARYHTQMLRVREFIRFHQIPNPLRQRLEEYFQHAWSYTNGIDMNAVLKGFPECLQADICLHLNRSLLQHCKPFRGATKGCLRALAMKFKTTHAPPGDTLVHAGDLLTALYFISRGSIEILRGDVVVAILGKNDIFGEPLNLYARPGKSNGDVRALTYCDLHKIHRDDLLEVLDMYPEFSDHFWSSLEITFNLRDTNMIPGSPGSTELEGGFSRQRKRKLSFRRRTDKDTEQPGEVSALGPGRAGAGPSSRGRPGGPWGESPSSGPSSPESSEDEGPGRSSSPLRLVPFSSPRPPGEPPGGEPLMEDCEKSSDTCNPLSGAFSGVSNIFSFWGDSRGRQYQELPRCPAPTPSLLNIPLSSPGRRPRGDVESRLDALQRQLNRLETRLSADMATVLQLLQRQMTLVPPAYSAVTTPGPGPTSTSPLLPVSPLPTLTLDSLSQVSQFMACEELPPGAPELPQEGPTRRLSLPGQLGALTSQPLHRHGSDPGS

[16] = Metabolic stability in human liver microsomes assessed as half life; type: ADME, Microsome

SMILES	half-life [1]	EC50 (SARS-CoV-2 [2])	Papp B→A [3]	half-life [4]	half-life [5]	CC50 at 72 h [6]	EC50 (SARS-CoV-2 [7])	IC50 (CYP3A4/CYP3A5)	EC50 (SARS-CoV-2 [8])	EC50 (SARS-CoV-2 [9])	IC50 [10]	bioavailability [11]	Papp A→B [12]	EC50 (SARS-CoV-2 [13])	AUC [14]	IC50 [15]	half-life [16]
COCCOc1cncc(-n2c(=O)[nH]/c(=N\c3cc4cn(C)nc4cc3Cl)n(Cc3cc(C#N)ccc3C)c2=O)c1	293 min	31.1 nM	24.1 ×10⁻⁶ cm/s	168 min	72 min	> 100 µM	13.7 nM	> 50 µM	6.8 nM	13.7 nM	19.4 nM	44.1%	1.57 ×10⁻⁶ cm/s	43 nM	9220 ng·h/mL	> 30 µM	355 min
Cn1cc2cc(/N=c3\[nH]c(=O)n(-c4cncc(O[C@H]5CCOC5)c4)c(=O)n3Cc3cc(F)c(F)cc3F)c(Cl)cc2n1	251 min	33.8 nM		114 min	90 min	> 100 µM	33.8 nM		34 nM	69.9 nM		108%		36.8 nM	25600 ng·h/mL		140 min
Cc1cncc(-n2c(=O)[nH]/c(=N\c3cc4cn(C)nc4cc3Cl)n(Cc3cc(Cl)c(F)c(Oc4ccc(F)cc4)c3)c2=O)c1		858 nM		408 min	360 min	> 100 µM	858 nM	48.2 µM	790 nM	707 nM	37.4 nM	129%		734 nM	333000 ng·h/mL	> 30 µM	
Cc1cncc(-n2c(=O)[nH]/c(=N\c3cc4cn(C)nc4cc3Cl)n(Cc3cc(Cl)c(F)cc3Sc3cccc(F)c3)c2=O)c1	138 min	365 nM	3.38 ×10⁻⁶ cm/s	360 min	360 min	> 100 µM	337 nM	30.7 µM	180 nM	336 nM	11.8 nM	60.5%	1.56 ×10⁻⁶ cm/s	326 nM	30000 ng·h/mL	> 30 µM	86 min
COc1cncc(-n2c(=O)[nH]/c(=N\c3cc4cn(C)nc4cc3Cl)n(Cc3cc(Cl)c(F)cc3Oc3ccc(F)cc3)c2=O)c1	95.3 min	241 nM	0.94 ×10⁻⁶ cm/s	306 min	276 min	> 100 µM	82.2 nM	6.87 µM	303 nM	241 nM	50.6 nM	98%	0.11 ×10⁻⁶ cm/s	364 nM	46700 ng·h/mL	16 µM	119 min
Cc1cncc(-n2c(=O)[nH]/c(=N\c3cc4cn(C)nc4cc3Cl)n(Cc3cc(Cl)c(F)cc3Oc3ccc(C#N)c(F)c3)c2=O)c1	53.5 min	54 nM	2.8 ×10⁻⁶ cm/s	102 min	132 min	> 100 µM	31.6 nM	11.3 µM	11.1 nM	33.4 nM	9.1 nM	115%	0.2 ×10⁻⁶ cm/s	99.3 nM	5620 ng·h/mL	8.75 µM	121 min
COc1cncc(-n2c(=O)[nH]/c(=N\c3cc4cn(C)nc4cc3Cl)n(Cc3cc(F)c(F)cc3F)c2=O)c1						> 100 µM					52.9 nM						
Cn1cc2cc(/N=c3\[nH]c(=O)n(-c4cncc(O[C@H]5CCOC5)c4)c(=O)n3Cc3cc(Cl)c(F)cc3F)c(Cl)cc2n1	231 min	9.4 nM	32.7 ×10⁻⁶ cm/s	120 min	96 min	> 100 µM	8.2 nM	> 50 µM	20.6 nM	21.9 nM	13.5 nM	87%	1.36 ×10⁻⁶ cm/s	27 nM	37400 ng·h/mL	> 30 µM	103 min
Cc1cncc(-n2c(=O)[nH]/c(=N\c3cc4cn(C)nc4cc3Cl)n(Cc3cc(C#N)ccc3Sc3ccc(Cl)s3)c2=O)c1		76.3 nM		164 min	149 min	> 100 µM	63.6 nM		21.8 nM	57.9 nM	12.3 nM	93%		65.3 nM	61400 ng·h/mL		
COCCOc1cncc(-n2c(=O)[nH]/c(=N\c3cc4cn(C)nc4cc3Cl)n(Cc3cc(Cl)c(F)cc3F)c2=O)c1	76.8 min	68.9 nM	29.2 ×10⁻⁶ cm/s	132 min	102 min	> 100 µM	54.1 nM	> 50 µM	35.6 nM	33.5 nM	18.3 nM	101%	2.92 ×10⁻⁶ cm/s	45.9 nM	39500 ng·h/mL	> 30 µM	85.2 min
